Data from patent publication US20110201603A1, “Novel Acylaminobenzamide Derivatives” (Bayer CropScience AG, priority 2008, published 2011).

Tests used:
Type in all cases: in vivo
[1] = tested on: two-spotted spider mite (Tetranychus urticae); test: Test against two-spotted spider mite (Tetranychus urticae), spray; details: concentration of 100 ppm; adult mites on kidney beans; after 7 days
Description: (§1) Unless not mentioned otherwise, the test solutions were prepared as follows:
(§2) Containing as solvent: Dimethylformamide, 3 parts by weight; and as emulsifier: Polyoxyethylene alkyl phenyl ether, 1 part by weight
(§3) To prepare the test solution, 1 part by weight of an active compound is mixed with the above-mentioned amount of solvent containing the above-mentioned amount of emulsifier, and the mixture is diluted with water to the desired concentration.
50 to 100 adult two-spotted spider mites were inoculated onto the leaves of kidney beans at the two-true leaf stage, which plant had been cultivated in a pot having a diameter of 6 cm. After one day, test solution at the appropriate concentration was sprayed thereon in a sufficient amount using a spray gun. After the spraying, the plant pot was placed inside a greenhouse, and after 7 days, the acaricidal activity was calculated. An acaricidal activity of 100% means that all mites were killed, whereas an acaricidal activity of 0% means that no mite was killed.

[2] = tested on: tobacco cutworm (Spodoptera litura) larvae; test: Test against tobacco cutworm (Spodoptera litura) larvae, leaf dip; details: active compound concentration of 100 ppm; third-instar larvae on sweet potato leaves; after 7 days
Description: as §1, §2, §3
The leaves of sweet potato were immersed in the test solution at the appropriate concentration, and the leaves were dried in air. The leaves were then placed in a petri dish having a diameter of 9 cm, and ten third-instar larvae of tobacco cutworm were released therein. The petri dish was placed in a temperature-controlled chamber at 25° C. After 2 days and 4 days sweet potato leaves were additionally added. After 7 days, the number of dead larvae was counted to calculate the insecticidal activity. An insecticidal activity of 100% means that all larvae were killed, whereas an insecticidal activity of 0% means that no larva was killed. In the current test, the results of two petri dishes for each partition were averaged.

[3] = tested on: cucurbit leaf beetle (Aulacophora femoralis); test: Test against cucurbit leaf beetle (Aulacophora femoralis), leaf dip; details: active compound concentration of 100 ppm; second-instar larvae on cucumber leaves; after 7 days
Description: as §1, §2, §3
Cucumber leaves were immersed in the test solution at the appropriate concentration, and the leaves were dried in air. The leaves were then placed in a plastic cup containing sterilized black soil, and five second-instar larvae of cucurbit leaf beetle were released therein. The plastic cup was placed in a temperature-controlled chamber at 25° C. After 7 days, the number of dead larvae was counted, and thus the insecticidal activity was calculated. An insecticidal activity of 100% means that all beetles were killed, whereas an insecticidal activity of 0% means that no beetle was killed.

[4] = tested on: Ctenocephalides felis; test: Ctenocephalides felis test (CTECFE), blood feeding; details: application rate of 100 ppm in cattle blood; adult unfed fleas; after 2 days
Description: Solvent: dimethyl sulfoxide
To produce a suitable preparation of active compound, 10 mg of active compound are dissolved in 0.5 ml solvent, and the concentrate is diluted with cattle blood to the desired concentration.
Approximately 10 to 15 adult unfed (Ctenocepahlides felis) are placed in flea chambers. The blood chamber, are sealed with paraffin on the bottom are filled with cattle blood supplied with compound solution and placed on top of the flea chamber, so that the fleas are able to suck the blood. The blood chamber is heated to 37° C. whereas the flea chamber is kept at room temperature. After 2 days mortality in % is determined. 100% means that all the fleas have been killed; 0% means that none of the fleas have been killed.

| SMILES | acaricidal activity rate [1] | insecticidal activity [2] | insecticidal activity [3] | activity (mortality in %) [4] |
| --- | --- | --- | --- | --- |
| CCc1cc(C(OCC2CC2)(C(F)(F)F)C(F)(F)F)cc(C)c1NC(=O)c1cccc(NC(=O)c2cccnc2Cl)c1 [1-66] | 100% | 100% | 100% |  |
| Cc1cc(C(n2cc(C(F)(F)F)cn2)(C(F)(F)F)C(F)(F)F)cc(C)c1NC(=O)c1cccc(NC(=O)c2cccnc2Cl)c1 [2-109] |  | 100% | 100% | 100% |
| CCc1cc(C(n2cccc2)(C(F)(F)F)C(F)(F)F)cc(C)c1NC(=O)c1cccc(NC(=O)c2cccnc2Cl)c1 [2-1] | 100% | 100% | 100% |  |
| CCc1cc(C(n2cc(Br)cn2)C(F)(F)F)cc(C)c1NC(=O)c1cccc(NC(=O)c2cccnc2Cl)c1 (centres unmarked) [2-77] |  | 100% |  | 90% |
| Cc1cc(C(N=[N+]=[N-])(C(F)(F)F)C(F)(F)F)cc(C)c1NC(=O)c1cccc(NC(=O)c2cccnc2Cl)c1 [2-145] | 100% | 100% | 100% |  |
| Cc1cc(C(n2cc(Cl)cn2)(C(F)(F)F)C(F)(F)F)cc(C)c1NC(=O)c1cccc(NC(=O)c2cccnc2Cl)c1 [2-51] | 100% | 100% |  | 100% |
| Cc1cc(C(n2cc(Br)cn2)(C(F)(F)F)C(F)(F)F)cc(C)c1NC(=O)c1cccc(NC(=O)c2cccnc2Cl)c1 [2-84] | 100% | 100% |  | 95% |
| CCc1cc(C(n2cc(Cl)cn2)(C(F)(F)F)C(F)(F)F)cc(C)c1NC(=O)c1cccc(NC(=O)c2cccnc2Cl)c1 [2-55] | 100% | 100% | 100% |  |
| O=C(Nc1c(Br)cc(C(n2cc(Cl)cn2)(C(F)(F)F)C(F)(F)F)cc1Br)c1cccc(NC(=O)c2cccnc2Cl)c1 [2-62] | 100% | 100% | 100% |  |
| Cc1cc(C(n2cc(C(F)(F)F)cn2)(C(F)(F)F)C(F)(F)F)cc(C)c1NC(=O)c1cccc(NC(=O)c2cccnc2F)c1 [2-108] |  | 100% | 100% | 100% |
| CC(c1cc(Br)c(NC(=O)c2cccc(NC(=O)c3cccnc3Cl)c2)c(Br)c1)(n1cc(Br)cn1)C(F)(F)F (centres unmarked) [2-83] | 100% | 100% | 100% |  |
| CC(c1cc(Br)c(NC(=O)c2cccc(NC(=O)c3cccnc3F)c2)c(Br)c1)(n1cc(Br)cn1)C(F)(F)F (centres unmarked) [2-82] | 100% | 100% | 100% |  |
| CCCOC(c1cc(I)c(NC(=O)c2cccc(NC(=O)c3ccc(Cl)nc3Cl)c2)c(I)c1)(C(F)(F)F)C(F)(F)F [1-64] | 100% |  |  |  |
| CCc1cc(C(Oc2ccc(Cl)cc2)(C(F)(F)F)C(F)(F)F)cc(C)c1NC(=O)c1cccc(NC(=O)c2cccnc2Cl)c1 [1-109] | 100% | 100% | 100% |  |
| Cc1cc(C(n2cncn2)(C(F)(F)F)C(F)(F)F)cc(Br)c1NC(=O)c1cccc(NC(=O)c2ccccc2F)c1 [2-151] |  |  |  | 90% |
| CCc1cc(C(Oc2ccc(Cl)cn2)(C(F)(F)F)C(F)(F)F)cc(C)c1NC(=O)c1cccc(NC(=O)c2cccnc2Cl)c1 [1-173] |  | 100% | 100% |  |
| CCc1cc(C(n2nc(Br)c(Br)c2Br)(C(F)(F)F)C(F)(F)F)cc(C)c1NC(=O)c1cccc(NC(=O)c2cccnc2F)c1 [2-128] |  | 100% | 100% |  |
| CCc1cc(C(Oc2ccc(C#N)cc2)(C(F)(F)F)C(F)(F)F)cc(C)c1NC(=O)c1cccc(NC(=O)c2cccnc2Cl)c1 [1-168] |  | 100% | 100% |  |
| Cc1cc(C(n2nc(Br)c(Br)c2Br)(C(F)(F)F)C(F)(F)F)cc(C)c1NC(=O)c1cccc(NC(=O)c2cccnc2Cl)c1 [2-133] |  | 100% | 100% |  |

| SMILES | acaricidal activity rate [1] | insecticidal activity [2] | insecticidal activity [3] | activity (mortality in %) [4] |
| --- | --- | --- | --- | --- |
| Cc1cc(C(n2cncn2)(C(F)(F)F)C(F)(F)F)cc(C)c1NC(=O)c1cccc(NC(=O)c2cccnc2Cl)c1 [2-148] |  |  |  | 95% |
| CCc1cc(C(n2cc(Cl)cn2)(C(F)(F)F)C(F)(F)F)cc(C)c1NC(=O)c1cccc(NC(=O)c2cccnc2)c1 [2-42] | 100% |  |  |  |
| CCc1cc(C(Oc2ccc(OC(F)(F)F)cc2)(C(F)(F)F)C(F)(F)F)cc(C)c1NC(=O)c1cccc(NC(=O)c2cccnc2Cl)c1 [1-131] |  | 100% | 100% |  |
| O=C(Nc1c(Cl)cc(C(n2cc(Cl)cn2)(C(F)(F)F)C(F)(F)F)cc1Cl)c1cccc(NC(=O)c2cccnc2Cl)c1 [2-61] |  | 100% | 100% |  |
| CCc1cc(C(C#N)(C(F)(F)F)C(F)(F)F)cc(C)c1NC(=O)c1cccc(NC(=O)c2cccnc2Cl)c1 [4-5] | 100% | 100% | 100% |  |
| CC#CCOC(c1cc(I)c(NC(=O)c2cccc(NC(=O)c3cccnc3Cl)c2)c(I)c1)(C(F)(F)F)C(F)(F)F [1-85] |  | 100% | 100% |  |
| CCc1cc(C(Oc2ccc(F)cc2)(C(F)(F)F)C(F)(F)F)cc(C)c1NC(=O)c1cccc(NC(=O)c2cccnc2Cl)c1 [1-128] |  | 100% | 100% |  |
| Cc1cc(C(n2cc(F)cn2)(C(F)(F)F)C(F)(F)F)cc(C)c1NC(=O)c1cccc(NC(=O)c2cccnc2Cl)c1 [2-6] | 100% | 100% | 100% |  |
| CCOC(c1cc(I)c(NC(=O)c2cccc(NC(=O)c3ccc(Cl)nc3Cl)c2)c(I)c1)(C(F)(F)F)C(F)(F)F [1-61] | 100% |  | 100% |  |
| CCc1cc(C(Oc2ccnc(C(F)(F)C(F)(F)F)c2)(C(F)(F)F)C(F)(F)F)cc(C)c1NC(=O)c1cccc(NC(=O)c2cccnc2Cl)c1 [1-142] |  | 100% | 100% |  |
| CCOC(c1cc(I)c(NC(=O)c2cccc(NC(=O)c3ccc(F)cc3)c2)c(I)c1)(C(F)(F)F)C(F)(F)F [1-28] | 100% | 100% | 100% |  |
| Cc1cc(C(n2cc(C(F)(F)F)cn2)C(F)(F)F)cc(C)c1NC(=O)c1cccc(NC(=O)c2cccnc2F)c1 (centres unmarked) [2-103] |  | 100% | 100% | 95% |
| CC#CCOC(c1cc(I)c(NC(=O)c2cccc(NC(=O)c3ccccc3)c2)c(I)c1)(C(F)(F)F)C(F)(F)F [1-83] |  | 100% | 100% |  |
| C#CCOC(c1cc(I)c(NC(=O)c2cccc(NC(=O)c3ccccc3)c2)c(I)c1)(C(F)(F)F)C(F)(F)F [1-79] |  | 100% | 100% |  |
| O=C(Nc1c(I)cc(C(n2cc(Cl)cn2)(C(F)(F)F)C(F)(F)F)cc1I)c1cccc(NC(=O)c2ccccc2F)c1 [2-34] |  | 100% | 100% |  |
| O=C(Nc1c(Br)cc(C(n2cc(Cl)cn2)(C(F)(F)F)C(F)(F)F)cc1Br)c1cccc(NC(=O)c2ccccc2F)c1 [2-33] |  | 100% | 100% |  |
| CCc1cc(C(Oc2ccc(C(F)(F)F)cc2)(C(F)(F)F)C(F)(F)F)cc(C)c1NC(=O)c1cccc(NC(=O)c2cccnc2Cl)c1 [1-130] |  | 100% | 100% |  |
| CCc1cc(C(Oc2ccc(Cl)c(Cl)c2)(C(F)(F)F)C(F)(F)F)cc(C)c1NC(=O)c1cccc(NC(=O)c2cccnc2Cl)c1 [1-151] |  | 100% | 100% |  |
| O=C(Nc1c(Br)cc(C(CF)(n2cc(Cl)cn2)C(F)(F)F)cc1Br)c1cccc(NC(=O)c2cccnc2Cl)c1 (centres unmarked) [2-24] | 100% | 100% | 100% |  |
